Test results reported in US20260306453A1, “FORMULATIONS CONTAINING TRYPTAMINE DERIVATIVES AND USES THEREOF” (priority 2023, published 2026).
Values joined by “and” are separate entries in the source; they are usually repeats but may differ in a detail not shown here. Equal entries are not always repeated. Where two headings read alike, the source gives them in different places.

How the values were obtained:
[1] = test system: cytokine interleukin 6 (IL-6); test: IL-6 quantification in HT22 mouse hippocampal neuronal cells; format: cell-based; settings: LPS stressed, HBr salt, 24 hours
Text: (§1) For neuroplasticity, brain-derived neurotrophic factor (BDNF; FIGS. 3B1 and 3B2) and for inflammation, cytokine interleukin 6 (IL-6; FIGS. 3A1 and 3A2) and TNFα (FIGS. 3C1 and 3C2), were quantified with and without proinflammatory treatment of lipopolysaccharide (LPS). LPS-induced inflammation is a model for neuroinflammation similar to what is seen in patients with neurodegenerative disorders. […] IL-6 is elevated in patients with frontotemporal dementias and other neurodegenerative disorders and especially in patients with disinhibition.

[2] = test system: brain-derived neurotrophic factor (BDNF); test: BDNF quantification in HT22 mouse hippocampal neuronal cells; format: cell-based; settings: HT22 control cells (no LPS); HBr salt; 24 hours
Text: as §1

TNFα = TNFα quantification in HT22 mouse hippocampal neuronal cells; format: cell-based; settings: LPS stressed, HBr salt, 24 hours
Text: as §1

[3] = test system: metabotropic glutamate receptor 2 (mGlu2); test: Brain tissue mGlu2 protein expression in prefrontal cortex after in vivo treatment; parameters: species or system mouse; settings: male C57BL/6J mice, 25 mg/kg daily 18 days
Text: The expression of metabotropic glutamate receptor 2 (mGlu2) in the prefrontal cortex was quantified following in vivo mouse studies. Regulation of the metabotropic glutamate receptor 2 (mGlu2) levels in alcohol seeking rats can reduce relapse behavior.

[4] = format: in vivo; settings: rat
Protocol: (§2) The rat PK (FIG. 6) was assessed with an oral dose of 10 mg/kg and intravenously at 1 mg/kg. […] The PK and brain concentrations were assessed in cohorts of 3 […] for each dosing group and between the plasma vs brain concentrations. For 10 mg/kg oral dosing, the PK parameters are outlined in Table 16 below.
1 mg/kg IV dosing, the PK parameters are outlined in Table 17.

[5] = format: in vivo; settings: rat, IV 1 mg/kg of 2-Br-4-AcO-DMT * HBr, 4 h, individual rat
Protocol: as §2
The brain vs. plasma concentrations from oral and IV doses of 2-Br-4-ACO-DMT*HBr are listed in Table 18 via detection of active 2-Br-4-OH-DMT.

mice = test: Reduction in alcohol consumption; format: in vivo, mouse; settings: addicted mice
Text: In order to test for the ability to curb alcohol consumption, mice were given 8-20%/alcohol ab libitum for two weeks. The results of alcohol consumption were monitored over two weeks after daily dosing of test compound in relation to positive control (4-AcO-DMT). Further studies extended the experiment to 60 days for three different doses while only dosing the mice every 3 days.

For `CC(=O)Oc1cccc2[nH]c(Br)c(CCN(C)C)c12` [2-Br-4-AcO-DMT, 2-bromo-3-(2-(dimethylamino)ethyl)-1H-indol-4-yl acetate], the IL-6 level [1] was “reduces IL-6”, the BDNF level [2] was “increases neuroplasticity marker BDNF in the control cells” and the TNFα level (TNFα) was “reduces IL-6 and TNFα in the stressed LPS cells”. The “mGluR2 expression reduction compared with psilacetin” value ([3]; n=5-6, relative to actin, normalized to vehicle) was “exceeding the effect of psilacetin”, the “mGluR2 expression, unstressed mice” value ([3]; no-stress, prefrontal cortex) was “reduced expression of mGluR2” and the “mGluR2 expression, stressed mice” value ([3]; tube restraint, prefrontal cortex) was “reduced expression of mGluR2”.
For `CN(C)CCc1c(Br)[nH]c2cccc(O)c12` [2-Br-4-OH-DMT, 2-bromo-3-(2-(dimethylamino)ethyl)-1H-indol-4-ol], the “AUC Extr” value ([4]; 1 mg/kg IV of 2-Br-4-AcO-DMT * HBr, individual rat, 1 mg/kg) was 7.66% and 4.06% and 4.54%, the “AUC Extr” value ([4]; 1 mg/kg IV of 2-Br-4-AcO-DMT * HBr, mean of 3 rats) was 5.42% and the “AUC Extr” value ([4]; 10 mg/kg PO of 2-Br-4-AcO-DMT * HBr, mean of 3 rats) was 4.50%. For the same molecule, the “Plasma Concentration” value [5] was “BLOQ”.
With `CC(=O)Oc1cccc2[nH]c(Br)c(CCN(C)C)c12` [drawing 37] the “Alcohol Consumption, effective dose range” value (mice) was 5 to 40 mg/kg.
